Test: Inhibition of p-gp in human KB/VCR cells assessed as potentiation of 100 nM docetaxel-induced cytotoxicity after 72 hrs by MTT assay

SMILES | EC50 [nM]
CC1(C)[C@@H](O)CC[C@]2(C)[C@H]3C[C@@H](O)[C@@H]4[C@@H]([C@@](C)(O)CCCNCc5ccccc5)CC[C@@]4(C)[C@]3(C)CC[C@@H]12 | 1370
CC1(C)[C@@H](O)CC[C@]2(C)[C@H]3C[C@@H](O)[C@@H]4[C@@H]([C@@](C)(O)CCCNCCc5ccccc5)CC[C@@]4(C)[C@]3(C)CC[C@@H]12 | 1310
